{"source": "patent US20210134398A1", "about": "“Combinatorial Chemistry Computational System and Enhanced Selection Method” (Southern Methodist University, priority 2019, published 2021)", "key": {"[1]": {"target": "P-gp (P-gp over-expressing cell line, DU145TXR) (Homo sapiens, UniProt P08183)", "sequence (P08183 whole entry)": "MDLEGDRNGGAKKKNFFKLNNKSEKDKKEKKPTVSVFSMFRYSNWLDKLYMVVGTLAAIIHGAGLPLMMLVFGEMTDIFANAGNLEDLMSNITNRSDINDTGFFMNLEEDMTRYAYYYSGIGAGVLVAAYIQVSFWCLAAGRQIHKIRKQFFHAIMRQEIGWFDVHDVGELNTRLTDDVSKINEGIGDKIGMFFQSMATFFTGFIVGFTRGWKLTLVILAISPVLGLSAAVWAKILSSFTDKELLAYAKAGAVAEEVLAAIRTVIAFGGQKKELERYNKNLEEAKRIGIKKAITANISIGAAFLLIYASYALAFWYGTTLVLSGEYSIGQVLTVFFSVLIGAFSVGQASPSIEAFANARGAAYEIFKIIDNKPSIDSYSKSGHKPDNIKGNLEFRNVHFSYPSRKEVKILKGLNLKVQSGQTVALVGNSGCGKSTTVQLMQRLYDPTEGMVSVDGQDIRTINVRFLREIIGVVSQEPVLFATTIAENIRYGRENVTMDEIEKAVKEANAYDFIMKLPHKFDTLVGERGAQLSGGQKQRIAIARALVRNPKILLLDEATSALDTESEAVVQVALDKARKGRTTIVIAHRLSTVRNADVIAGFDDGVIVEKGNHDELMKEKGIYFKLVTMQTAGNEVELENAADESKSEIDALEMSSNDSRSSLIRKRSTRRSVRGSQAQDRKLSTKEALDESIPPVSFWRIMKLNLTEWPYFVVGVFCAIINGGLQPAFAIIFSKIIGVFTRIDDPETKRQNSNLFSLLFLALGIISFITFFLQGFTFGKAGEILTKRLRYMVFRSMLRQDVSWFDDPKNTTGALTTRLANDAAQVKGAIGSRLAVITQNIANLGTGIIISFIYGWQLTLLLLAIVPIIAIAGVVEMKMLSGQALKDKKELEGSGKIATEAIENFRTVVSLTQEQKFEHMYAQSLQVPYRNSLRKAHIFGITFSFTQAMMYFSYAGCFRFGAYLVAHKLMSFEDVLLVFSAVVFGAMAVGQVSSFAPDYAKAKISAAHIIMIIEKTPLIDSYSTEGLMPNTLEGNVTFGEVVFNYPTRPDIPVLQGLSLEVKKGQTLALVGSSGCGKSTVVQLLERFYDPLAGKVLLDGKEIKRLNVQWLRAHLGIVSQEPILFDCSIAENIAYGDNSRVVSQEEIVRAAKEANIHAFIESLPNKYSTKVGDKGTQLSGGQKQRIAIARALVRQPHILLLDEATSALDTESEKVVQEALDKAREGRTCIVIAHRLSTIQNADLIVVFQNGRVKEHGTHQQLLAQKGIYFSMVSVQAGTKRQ", "test": "Cellular accumulation of experimental compounds by LC-MS/MS with and without tariquidar", "details": "for Transport substrate for P-gp: not told", "description": "Stimulation of basal ATPase by 29-variants was used as an indicator that a compound may be a P-gp transport substrate. Effects on stimulated P-gp ATPase activity indicated whether a compound directly interfered with ATP usage by the protein (***, p<0.001; **, p<0.01; *, p<0.1; NS, not significant). Quantitative cellular accumulation of 29-variants was performed using LC-MS/MS and is presented as a ratio of the cellular amounts of 29-variants in the presence of P-gp inhibitor, tariquidar, divided by amounts accumulated in its absence. […] Binding of an ATP analog, SL-ATP, to P-gp was used to determine whether ATP binding to P-gp was affected by the 29-variants. Values +/−standard deviations are shown for at least three different P-gp preparations and three independent SL-ATP titration experiments. The values for SL-ATP binding in the presence of 29 were taken directly from Brewer et al. (2014).\nIntracellular accumulation of compound 29 variants. Cell accumulation assays for each of the 29 variants were performed as in reference^28 to more directly assess whether the compounds were indeed transport substrates for P-gp.\nCellular Accumulation Assays for Experimental P-gp Inhibitors. Cells used (DU145TXR), cell culturing, cell exposure to compounds, cellular handling and extractions were performed as described in^28. LC-MS/MS methods were performed as described in^71 and as modified in^28."}, "DU145TXR": {"system": "DU145TXR", "test": "Cell viability, toxicity of the compounds themselves", "type": "cell-based", "details": "absence of chemotherapeutic or very low paclitaxel", "description": "It should be noted that compounds 541 and 551 were not assessed in these latter experiments.\nMTT cell viability assay. Cells were trypsinized from monolayers and seeded with 3000 cells in 150 μL of complete medium in a 96 well plate. After 24 hours, cells were treated for 48 hours with paclitaxel (Acros Organics, NJ) and/or P-gp inhibitory compounds dissolved in DMSO, or DMSO controls. All additions were diluted into complete medium. After 48 hours of treatment, MTT assays were performed as described^41 using 5 mg/mL of MTT (Acros Organics, NJ) solution prepared in PBS (137 mM NaCl, 2.7 mM KCl, 10 mM Na2HPO4, 1.8 mM KH2PO4, pH 7.4). After 4 hours of incubation with MTT, the media was removed and the formazan crystals were dissolved in 100 μL of DMSO. The absorbance at 570 nm was then measured using a BioTek Cytation 5 imaging multi-mode reader (Bio-Tek, Winooski, Vt.). Percent viability was calculated using DMSO treated cells as representative for 100% viability, according to Equation 1. Background absorbance was determined using MTT and complete medium without cells and subtracted from all the test values. Equation 1: […]"}, "[2]": {"target": "T1, cysteineless mouse P-glycoprotein (Mus musculus, UniProt P21447, C1070A/C1121A/C1223A/C133A/C427A/C638A/C669A/C713A/C952A)", "T1 construct": "made in house; host or cells: Pichia pastoris", "T1 sequence (P21447 whole entry C133A/C427A/C638A/C669A/C713A/C952A/C1070A/C1121A/C1223A)": "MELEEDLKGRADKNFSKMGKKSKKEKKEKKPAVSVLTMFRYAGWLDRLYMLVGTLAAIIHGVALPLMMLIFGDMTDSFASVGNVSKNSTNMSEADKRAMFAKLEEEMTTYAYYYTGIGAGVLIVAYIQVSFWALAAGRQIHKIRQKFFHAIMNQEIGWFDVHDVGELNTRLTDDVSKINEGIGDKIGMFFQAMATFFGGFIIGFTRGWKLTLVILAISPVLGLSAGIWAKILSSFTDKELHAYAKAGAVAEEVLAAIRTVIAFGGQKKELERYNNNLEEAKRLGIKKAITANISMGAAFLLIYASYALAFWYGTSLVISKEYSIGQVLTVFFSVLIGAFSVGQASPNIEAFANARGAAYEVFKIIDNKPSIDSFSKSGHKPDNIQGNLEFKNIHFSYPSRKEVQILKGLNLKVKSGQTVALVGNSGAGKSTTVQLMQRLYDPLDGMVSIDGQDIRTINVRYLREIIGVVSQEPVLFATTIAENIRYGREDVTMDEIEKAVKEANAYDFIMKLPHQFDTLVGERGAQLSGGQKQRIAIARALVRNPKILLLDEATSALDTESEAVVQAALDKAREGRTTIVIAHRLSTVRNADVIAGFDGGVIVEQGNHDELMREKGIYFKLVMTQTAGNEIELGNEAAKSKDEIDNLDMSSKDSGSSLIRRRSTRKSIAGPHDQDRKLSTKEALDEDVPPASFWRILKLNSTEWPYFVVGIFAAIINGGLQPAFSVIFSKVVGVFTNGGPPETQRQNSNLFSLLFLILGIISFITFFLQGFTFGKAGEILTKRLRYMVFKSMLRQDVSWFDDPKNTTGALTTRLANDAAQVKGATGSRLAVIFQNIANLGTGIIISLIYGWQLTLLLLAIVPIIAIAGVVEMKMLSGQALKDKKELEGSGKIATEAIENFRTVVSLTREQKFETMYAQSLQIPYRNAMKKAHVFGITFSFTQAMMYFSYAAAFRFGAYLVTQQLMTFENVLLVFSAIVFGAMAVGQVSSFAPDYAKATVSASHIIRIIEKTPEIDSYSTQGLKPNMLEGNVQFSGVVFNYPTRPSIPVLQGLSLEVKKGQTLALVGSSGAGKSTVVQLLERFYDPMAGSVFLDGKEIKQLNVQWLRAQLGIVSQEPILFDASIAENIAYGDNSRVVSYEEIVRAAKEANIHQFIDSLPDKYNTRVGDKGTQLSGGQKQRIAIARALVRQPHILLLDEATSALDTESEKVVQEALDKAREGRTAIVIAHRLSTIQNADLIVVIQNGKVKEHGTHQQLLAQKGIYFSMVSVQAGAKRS", "details": "in the presence of 29, from Brewer et al. (2014), cited from earlier work"}}, "note": "Like-named read-outs stand apart in the source and are kept apart here.", "data": [{"compound": "2-{[2-(9H-flouoren-2-yl)-2-oxoethyl]}-N-[1-phenyl-3-(2,4,5-trimethylphenyl0-1H-pyrazol-5-yl]acetamide [29-216]", "values": [{"measurement": "Cellular accumulation: ratio of plus Tariquidar over no Tariquidar", "setting": "[1]", "result": 1.1}]}, {"compound": "Cc1cc(C)c(-c2cc(NC(=O)CSCC(=O)N3c4ccccc4CCc4ccccc43)n(-c3ccccc3)n2)cc1C", "note": "[29-227, 2-[(2-{2-azatricyclo[9.4.0.0]pentadeca-1(11),3(8},4,6,12,14-hexaen-2-yl)-2-oxoethyl)sulfanyl]-N-[1-phenyl-3-(2,4,5-trimethylphenyl)-1H-pyrazol-5-yl]acetamide]", "values": [{"measurement": "Cellular accumulation: ratio of plus Tariquidar over no Tariquidar", "setting": "[1]", "result": 1.0}]}, {"compound": "Cc1cc(C)c(-c2cc(NC(=O)CSCC(=O)Nc3ccc4ccccc4c3)n(-c3ccccc3)n2)cc1C", "note": "[29-231, 2-({[(naphthalen-2-yl)carbamoyl]methyl}sulfanyl)-N-[1-phenyl-3-(2,4,5-trimethylphenyl)-1H-pyrazol-5-yl]acetamide]", "values": [{"measurement": "Intracellular accumulation in absence vs presence of tariquidar (in words)", "setting": "[1]", "result": "no significant cellular accumulation"}, {"measurement": "Cellular accumulation: ratio of plus Tariquidar over no Tariquidar", "setting": "[1]; human", "result": 0.9}, {"measurement": "Transport substrate for P-gp", "setting": "[1]; human", "result": "none of the Group 1 compounds functions as a transport substrate of P-gp"}, {"measurement": "Transport substrate for P-gp", "setting": "[1]", "result": "no"}]}, {"compound": "COc1cc(NC(=O)CSCC(=O)Nc2cc(-c3cc(C)c(C)cc3C)nn2-c2ccccc2)cc(OC)c1OC", "note": "[29-238, N-[1-phenyl-3-(2,4,5-trimethylphenyl)-1H-pyrazol-5-yl]-2-({[(3,4,5-trimethoxyphenyl)carbamoyl]methyl}sulfanyl)acetamide]", "values": [{"measurement": "Intracellular accumulation in absence vs presence of tariquidar (in words)", "setting": "[1]", "result": "very large and significant increase"}, {"measurement": "Cellular accumulation: ratio of plus Tariquidar over no Tariquidar", "setting": "[1]; human", "result": 1.9}]}, {"compound": "Cc1cc(C)c(-c2cc(NC(=O)CSCC(=O)Nc3ccc4ncsc4c3)n(-c3ccccc3)n2)cc1C", "note": "[29-255, 2-({[(1,3-benzothiazol-6-yl)carbamoyl]methyl}sulfanyl)-N-[1-phenyl-3-(2,4,5 trimethylphenyl)-1H-pyrazol-5-yl]acetamide]", "values": [{"measurement": "Intracellular accumulation in absence vs presence of tariquidar (in words)", "setting": "[1]", "result": "more modest, but statistically significant increases"}, {"measurement": "Cellular accumulation: ratio of plus Tariquidar over no Tariquidar", "setting": "[1]; human", "result": 1.2}]}, {"compound": "Cc1cc(C)c(-c2cc(NC(=O)CSCC(=O)NC34CC5CC(CC(C5)C3)C4)n(-c3ccccc3)n2)cc1C", "note": "[29-278, 2-({[(adamantan-1-yl)carbamoyl]methyl}sulfanyl)-N-[1-phenyl-3-(2,4,5-trimethylphenyl)-1H-pyrazol-5-yl]acetamide]", "values": [{"measurement": "Cellular accumulation: ratio of plus Tariquidar over no Tariquidar", "setting": "[1]; human", "result": 1.0}]}, {"compound": "Cc1cc(C)c(-c2cc(NC(=O)CSCC(=O)NC(c3ccccc3)c3ccccc3)n(-c3ccccc3)n2)cc1C", "note": "[29-280, N-(diphenylmethyl)-2-[({[1-phenyl-3-(2,4,5-trimethylphenyl)-1H-pyrazol-5-yl]carbamoyl)methyl}sulfanyl]acetamide]", "values": [{"measurement": "Toxicity of the compound to DU145TXR cells", "setting": "DU145TXR", "result": "seemed to exhibit some toxicity"}, {"measurement": "Cellular accumulation: ratio of plus Tariquidar over no Tariquidar", "setting": "[1]; human", "result": 1.2}]}, {"compound": "Cc1cc(C)c(-c2cc(NC(=O)CSCC(=O)NCc3ccc(F)cc3)n(-c3ccccc3)n2)cc1C", "note": "[29-286]", "values": [{"measurement": "Cellular accumulation: ratio of plus Tariquidar over no Tariquidar", "setting": "[1]", "result": 1.3}, {"measurement": "Intracellular accumulation in absence vs presence of tariquidar (in words)", "setting": "[1]", "result": "more modest, but statistically significant increases"}]}, {"compound": "Cc1cc(C)c(-c2cc(NC(=O)CSc3nnc4c(n3)[nH]c3ccccc34)n(-c3ccccc3)n2)cc1C", "note": "[29-541, 2-((5H-[1,2,4]triazino[5,6-b]indol-3-yl)thio)-N-(1-phenyl-3-(2,4,5-trimethylphenyl)-1H-pyrazol-5-yl)acetamide]", "values": [{"measurement": "Toxicity of the compound to DU145TXR cells", "setting": "DU145TXR", "result": "showed some toxicity"}, {"measurement": "Cellular accumulation: ratio of plus Tariquidar over no Tariquidar", "setting": "[1]; human", "result": 1.0}, {"measurement": "Transport substrate for P-gp", "setting": "[1]; human", "result": "none of the Group 1 compounds functions as a transport substrate of P-gp"}, {"measurement": "Transport substrate for P-gp", "setting": "[1]", "result": "no"}]}, {"compound": "Cc1cc(C)c(-c2cc(NC(=O)CSc3cccc(NC(=O)c4cncc(Br)c4)c3)n(-c3ccccc3)n2)cc1C", "note": "[29-551, 5-bromo-N-(3-((2-oxo-2-((1-phenyl-3-(2,4,5-trimethylphenyl)-1H-pyrazol-5-yl)amino)ethyl)thio)phenyl)nicotinamide]", "values": [{"measurement": "Cellular accumulation: ratio of plus Tariquidar over no Tariquidar", "setting": "[1]; human", "result": 1.1}, {"measurement": "Transport substrate for P-gp", "setting": "[1]; human", "result": "none of the Group 1 compounds functions as a transport substrate of P-gp"}]}, {"compound": "Cc1cc(C)c(-c2cc(NC(=O)CSc3nnc(C4CC4)[nH]3)n(-c3ccccc3)n2)cc1C", "note": "[compound 29, reference compound]", "values": [{"measurement": "Effect on SL-ANP binding", "setting": "[2]", "result": "did not affect the binding"}, {"measurement": "Effect on SL-ANP binding", "setting": "[2]; listed as SMU29", "result": "no"}, {"measurement": "Cellular accumulation: ratio of plus Tariquidar over no Tariquidar", "setting": "[1]", "result": 1.0}, {"measurement": "Intracellular accumulation in absence vs presence of tariquidar (in words)", "setting": "[1]", "result": "no significant difference"}]}]}
